What was measured:
Test in all cases: relative viability (nuclei count vs DMSO), 5 days (fraction); higher = more cells survive
[1] = compound: CC1=CC(=C(N1C2=CC=C(C=C2)Cl)C)C(=O)CN3CCCCC3 [IU1-47] + Cc1nc(Nc2ncc(C(=O)Nc3c(C)cccc3Cl)s2)cc(N2CCN(CCO)CC2)n1 [Dasatinib] (partner 0.075 µM)
Method in brief: (§1)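 After 5 days of treatment, lung cancer cells in 1536-well plates were fixed and stained in a single step (final 0.05% Triton X-100, 1% formaldehyde, 1 ug/ml Hoechst) and their nuclei counted on 4× images. Treatment had been applied by pin tool the day after seeding as one drug alone or as a fixed anchor-drug dose with five library-drug doses (not always all listed) in √10 steps. Relative viability is the nuclei count of treated wells divided by that of vehicle wells, and values are medians of duplicate plates.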

[2] = compound: Cc1nc(C(=O)NCC(=O)O)c(O)c2ccc(Oc3ccccc3)cc12 [FG-4592] + CC(C)C[C@H](NC(=O)[C@H](Cc1ccccc1)NC(=O)c1cnccn1)B(O)O [Bortezomib] (partner 0.002 µM)
Method in brief: as §1

[3] = compound: Cc1nc(C(=O)NCC(=O)O)c(O)c2ccc(Oc3ccccc3)cc12 [FG-4592] + Cc1cc(Nc2cc(N3CCN(C)CC3)nc(Sc3ccc(NC(=O)C4CC4)cc3)n2)n[nH]1 [Tozasertib] (partner 0.1 µM)
Method in brief: as §1

[4] = compound: Cc1nc(C(=O)NCC(=O)O)c(O)c2ccc(Oc3ccccc3)cc12 [FG-4592] + Nc1nc2[nH]cc(CCc3ccc(C(=O)N[C@@H](CCC(=O)O)C(=O)O)cc3)c2c(=O)[nH]1 [Pemetrexed] (partner 0.2 µM)
Method in brief: as §1

NCI-H1975
relative viability ([1]; first compound 0.08 µM): 0.329 | relative viability ([1]; first compound 0.253 µM): 0.343 | relative viability ([1]; first compound 0.8 µM): 0.372 | relative viability ([1]; first compound 2.53 µM): 0.318 | relative viability ([1]; first compound 8 µM): 0.361 | relative viability ([2]; first compound 0.08 µM): 0.369 | relative viability ([2]; first compound 0.253 µM): 0.318 | relative viability ([2]; first compound 0.8 µM): 0.34 | relative viability ([2]; first compound 2.53 µM): 0.4 | relative viability ([2]; first compound 8 µM): 0.307 | relative viability ([3]; first compound 0.08 µM): 0.772 | relative viability ([3]; first compound 0.253 µM): 0.78 | relative viability ([3]; first compound 0.8 µM): 0.868 | relative viability ([3]; first compound 2.53 µM): 0.783 | relative viability ([3]; first compound 8 µM): 0.683 | relative viability ([4]; first compound 0.08 µM): 0.27 | relative viability ([4]; first compound 0.253 µM): 0.293 | relative viability ([4]; first compound 0.8 µM): 0.292 | relative viability ([4]; first compound 2.53 µM): 0.268 | relative viability ([4]; first compound 8 µM): 0.307

NCI-H1993
relative viability ([1]; first compound 0.08 µM): 0.497 | relative viability ([1]; first compound 0.253 µM): 0.732 | relative viability ([1]; first compound 0.8 µM): 0.651 | relative viability ([1]; first compound 2.53 µM): 0.548 | relative viability ([1]; first compound 8 µM): 0.571 | relative viability ([2]; first compound 0.08 µM): 1.12 | relative viability ([2]; first compound 0.253 µM): 0.828 | relative viability ([2]; first compound 0.8 µM): 1.06 | relative viability ([2]; first compound 2.53 µM): 1.25 | relative viability ([2]; first compound 8 µM): 0.894 | relative viability ([3]; first compound 0.08 µM): 0.613 | relative viability ([3]; first compound 0.253 µM): 0.584 | relative viability ([3]; first compound 0.8 µM): 0.604 | relative viability ([3]; first compound 2.53 µM): 0.441 | relative viability ([3]; first compound 8 µM): 0.548 | relative viability ([4]; first compound 0.08 µM): 0.644 | relative viability ([4]; first compound 0.253 µM): 0.48 | relative viability ([4]; first compound 2.53 µM): 0.487 | relative viability ([4]; first compound 8 µM): 0.594

NCI-H2009
relative viability ([1]; first compound 0.08 µM): 0.257 | relative viability ([1]; first compound 0.253 µM): 0.263 | relative viability ([1]; first compound 0.8 µM): 0.293 | relative viability ([1]; first compound 2.53 µM): 0.231 | relative viability ([1]; first compound 8 µM): 0.241 | relative viability ([2]; first compound 0.08 µM): 1.02 | relative viability ([2]; first compound 0.253 µM): 0.934 | relative viability ([2]; first compound 0.8 µM): 0.948 | relative viability ([2]; first compound 2.53 µM): 0.826 | relative viability ([2]; first compound 8 µM): 0.882 | relative viability ([3]; first compound 0.08 µM): 0.715 | relative viability ([3]; first compound 0.253 µM): 0.58 | relative viability ([3]; first compound 0.8 µM): 0.758 | relative viability ([3]; first compound 2.53 µM): 0.713 | relative viability ([3]; first compound 8 µM): 0.655 | relative viability ([4]; first compound 0.08 µM): 1.01 | relative viability ([4]; first compound 0.253 µM): 1.16 | relative viability ([4]; first compound 0.8 µM): 1 | relative viability ([4]; first compound 2.53 µM): 1.02 | relative viability ([4]; first compound 8 µM): 1.06

NCI-H2023
relative viability ([1]; first compound 0.08 µM): 0.564 | relative viability ([1]; first compound 0.253 µM): 0.521 | relative viability ([1]; first compound 0.8 µM): 0.657 | relative viability ([1]; first compound 2.53 µM): 0.347 | relative viability ([1]; first compound 8 µM): 0.55 | relative viability ([2]; first compound 0.08 µM): 1.07 | relative viability ([2]; first compound 0.253 µM): 0.924 | relative viability ([2]; first compound 0.8 µM): 0.664 | relative viability ([2]; first compound 2.53 µM): 0.763 | relative viability ([2]; first compound 8 µM): 0.679 | relative viability ([3]; first compound 0.08 µM): 0.354 | relative viability ([3]; first compound 0.253 µM): 0.357 | relative viability ([3]; first compound 0.8 µM): 0.374 | relative viability ([3]; first compound 2.53 µM): 0.348 | relative viability ([3]; first compound 8 µM): 0.258 | relative viability ([4]; first compound 0.08 µM): 0.228 | relative viability ([4]; first compound 0.253 µM): 0.198 | relative viability ([4]; first compound 0.8 µM): 0.244 | relative viability ([4]; first compound 2.53 µM): 0.232 | relative viability ([4]; first compound 8 µM): 0.217

NCI-H2085
relative viability ([1]; first compound 0.08 µM): 0.218 | relative viability ([1]; first compound 0.253 µM): 0.269 | relative viability ([1]; first compound 0.8 µM): 0.242 | relative viability ([1]; first compound 2.53 µM): 0.228 | relative viability ([1]; first compound 8 µM): 0.252 | relative viability ([2]; first compound 0.08 µM): 0.998 | relative viability ([2]; first compound 0.253 µM): 1.02 | relative viability ([2]; first compound 0.8 µM): 1.01 | relative viability ([2]; first compound 2.53 µM): 0.963 | relative viability ([2]; first compound 8 µM): 1.06 | relative viability ([3]; first compound 0.08 µM): 0.79 | relative viability ([3]; first compound 0.253 µM): 0.774 | relative viability ([3]; first compound 0.8 µM): 0.758 | relative viability ([3]; first compound 2.53 µM): 0.792 | relative viability ([3]; first compound 8 µM): 0.933 | relative viability ([4]; first compound 0.08 µM): 0.934 | relative viability ([4]; first compound 0.253 µM): 0.769 | relative viability ([4]; first compound 0.8 µM): 0.81 | relative viability ([4]; first compound 2.53 µM): 0.863 | relative viability ([4]; first compound 8 µM): 1.07

NCI-H2087
relative viability ([1]; first compound 0.08 µM): 0.963 | relative viability ([1]; first compound 0.253 µM): 0.973 | relative viability ([1]; first compound 0.8 µM): 1.12 | relative viability ([1]; first compound 8 µM): 0.681 | relative viability ([2]; first compound 0.08 µM): 0.775 | relative viability ([2]; first compound 0.253 µM): 0.864 | relative viability ([2]; first compound 0.8 µM): 0.983 | relative viability ([2]; first compound 2.53 µM): 0.832 | relative viability ([2]; first compound 8 µM): 0.789 | relative viability ([3]; first compound 0.08 µM): 0.234 | relative viability ([3]; first compound 0.253 µM): 0.205 | relative viability ([3]; first compound 0.8 µM): 0.279 | relative viability ([3]; first compound 2.53 µM): 0.175 | relative viability ([3]; first compound 8 µM): 0.269 | relative viability ([4]; first compound 0.08 µM): 0.604 | relative viability ([4]; first compound 0.253 µM): 0.565 | relative viability ([4]; first compound 0.8 µM): 0.658 | relative viability ([4]; first compound 8 µM): 0.591

NCI-H2126
relative viability ([1]; first compound 0.08 µM): 0.596 | relative viability ([1]; first compound 0.253 µM): 0.717 | relative viability ([1]; first compound 0.8 µM): 0.724 | relative viability ([1]; first compound 8 µM): 0.601 | relative viability ([2]; first compound 0.08 µM): 1.09 | relative viability ([2]; first compound 0.253 µM): 1.1 | relative viability ([2]; first compound 0.8 µM): 1.12 | relative viability ([2]; first compound 2.53 µM): 1.12 | relative viability ([2]; first compound 8 µM): 1.13 | relative viability ([3]; first compound 0.08 µM): 0.842 | relative viability ([3]; first compound 0.253 µM): 0.775 | relative viability ([3]; first compound 0.8 µM): 0.782 | relative viability ([3]; first compound 2.53 µM): 0.721 | relative viability ([3]; first compound 8 µM): 0.575 | relative viability ([4]; first compound 0.08 µM): 0.701 | relative viability ([4]; first compound 0.253 µM): 0.583 | relative viability ([4]; first compound 0.8 µM): 0.656 | relative viability ([4]; first compound 2.53 µM): 0.609 | relative viability ([4]; first compound 8 µM): 0.696

NCI-H2228
relative viability ([1]; first compound 0.08 µM): 0.625 | relative viability ([1]; first compound 0.253 µM): 0.581 | relative viability ([1]; first compound 0.8 µM): 0.471 | relative viability ([1]; first compound 2.53 µM): 0.363 | relative viability ([1]; first compound 8 µM): 0.43 | relative viability ([2]; first compound 0.08 µM): 0.928 | relative viability ([2]; first compound 0.253 µM): 0.872 | relative viability ([2]; first compound 0.8 µM): 0.786 | relative viability ([2]; first compound 2.53 µM): 1.1 | relative viability ([2]; first compound 8 µM): 0.737 | relative viability ([3]; first compound 0.08 µM): 0.276 | relative viability ([3]; first compound 0.253 µM): 0.262 | relative viability ([3]; first compound 0.8 µM): 0.226 | relative viability ([3]; first compound 2.53 µM): 0.288 | relative viability ([3]; first compound 8 µM): 0.225 | relative viability ([4]; first compound 0.08 µM): 0.368 | relative viability ([4]; first compound 0.253 µM): 0.302 | relative viability ([4]; first compound 0.8 µM): 0.434 | relative viability ([4]; first compound 2.53 µM): 0.331 | relative viability ([4]; first compound 8 µM): 0.32
